Measurements taken from US11939300B2, “Compounds and methods for treating autoimmune disorders by targeting HLA-DQ2” (ImmunoMolecular Therapeutics, Inc., priority 2020, dated 2024).

System: HLA-DQ2
Test: Inhibition of IL-2 secretion by TCR transductants stimulated by α-gliadin peptides presented by HLA-DQ2 expressing K562 cells (ELISA)
Format: cell-based, human
Conditions: for DQ2 IL2 Maximal % Inhibition: IL-2 secretion, TCR transductants (α I- or α II-gliadin) + gliadin peptide + HLA-DQ2 K562 cells, at the concentration given in brackets; for concentration at which the compound exhibited maximum % inhibition (DQ2 IL2): from dose-response curve, figure in brackets in the cell
Procedure: Three commercially available analogues of the DQ2 binding molecules of the invention were tested for their ability to inhibit stimulation of T cell receptor (TCR) transductants in the presence of HLA-DQ2 expressing cells presenting known α-gliadin epitopes.
Using a previously published in vitro assay (Ostrov D, et al. Methyldopa blocks MHC class II binding to disease specific antigens in autoimmune diabetes. J Clin Invest. 2018:128(5)) we measured the ability of these DQ2 binding analogues to inhibit interleukin-2 (IL-2) secretion by TCR transductants stimulated by α-gliadin peptides presented by HLA-DQ2. Individual TCR transductants (recognizing α I-gliadin or α II-gliadin) were cultured with a gliadin peptide plus the small molecule analogues in the presence of HLA-DQ2 expressing K562 cells serving as antigen presenting cells. TCR transductants cultured with no gliadin peptide served as the negative control, and incubation with an anti-CD3 antibody (eBioscience; clone 2C11) served as a positive control for the TCR transductant. Secreted IL-2 in the culture supernatant was measured using a highly sensitive enzyme-linked immunosorbent assay (ELISA). […] Assays for effects on cell viability and for specificity, assayed in the absence of gliadin peptide or in the presence of a stimulating anti-CD3 antibody, were performed. A=71-100%; B=41-70%; C=11-40%; D=0-10%, NT=Not tested.

Row | Compound | DQ2 IL2 Maximal % Inhibition | concentration at which the compound exhibited maximum % inhibition (DQ2 IL2)
1 | O=C(NC1CCc2n[nH]c(=O)cc2C1)c1ccccc1 (centres unmarked) [Compound 1] | C (C=11-40%) | 50 µM
2 | Cc1ccc(C(=O)NC2CCc3n[nH]c(=O)cc3C2)cc1 (centres unmarked) [Compound 2] | C (C=11-40%) | 100 µM
3 | CCCc1ccc(C(=O)NC2CCc3n[nH]c(=O)cc3C2)cc1 (centres unmarked) [Compound 3] | B (B=41-70%) | 100 µM
4 | CC(C)c1ccc(C(=O)NC2CCc3n[nH]c(=O)cc3C2)cc1 (centres unmarked) [Compound 4] | A (A=71-100%) | 200 µM
5 | CCCCc1ccc(C(=O)NC2CCc3n[nH]c(=O)cc3C2)cc1 (centres unmarked) [Compound 5, 4-n-butyl-N-(3-oxo-5,6,7,8-tetrahydrocinnolin-6-yl)benzamide] | D (D=0-10%) | 50 µM
6 | CC(=O)NC1CCc2n[nH]c(=O)cc2C1 (centres unmarked) [Compound 6] | C (C=11-40%) | 50 µM
7 | CCC(=O)NC1CCc2n[nH]c(=O)cc2C1 (centres unmarked) [Compound 7] | D (D=0-10%) | 200 µM
8 | CCCC(=O)NC1CCc2n[nH]c(=O)cc2C1 (centres unmarked) [Compound 8] | D (D=0-10%) | 200 µM
9 | CCCCC(=O)NC1CCc2n[nH]c(=O)cc2C1 (centres unmarked) [Compound 9] | C (C=11-40%) | 100 µM
10 | CC(C)(C)C(=O)NC1CCc2n[nH]c(=O)cc2C1 (centres unmarked) [Compound 10] | D (D=0-10%) | 200 µM
11 | O=C(NC1CCc2n[nH]c(=O)cc2C1)C1CC1 (centres unmarked) [Compound 11] | D (D=0-10%) | 200 µM
12 | O=C(NC1CCc2n[nH]c(=O)cc2C1)C1CCCCC1 (centres unmarked) [Compound 12] | C (C=11-40%) | 0.1 µM
13 | CC(C)(C)c1ccc(C(=O)NC2CCc3n[nH]c(=O)cc3C2)cc1 (centres unmarked) [Compound 13] | D (D=0-10%) | 0.1 µM
14 | O=C(NC1CCc2n[nH]c(=O)cc2C1)c1ccc(C2CCCCC2)cc1 (centres unmarked) [Compound 14] | B (B=41-70%) | 200 µM
15 | CC(C)C(=O)NC1CCc2n[nH]c(=O)cc2C1 (centres unmarked) [Compound 15] | C (C=11-40%) | 100 µM
16 | Cn1nc2c(cc1=O)CC(NC(=O)c1ccccc1)CC2 (centres unmarked) [Compound 16, N-(2-methyl-3-oxo-5,6,7,8-tetrahydrocinnolin-6-yl)benzamide] | B (B=41-70%) | 100 µM
17 | Cn1nc2c(cc1=O)CC(NC(=O)c1ccc3ccccc3c1)CC2 (centres unmarked) [Compound 17] | A (A=71-100%) | 100 µM
18 | CC(=O)NC1CCc2nn(C)c(=O)cc2C1 (centres unmarked) [Compound 18] | C (C=11-40%) | 100 µM
19 | Cn1nc2c(cc1=O)CC(NC(=O)C1CCCCC1)CC2 (centres unmarked) [Compound 19] | B (B=41-70%) | 100 µM
20 | Cc1ccc(C(=O)NC2CCc3nn(C)c(=O)cc3C2)cc1 (centres unmarked) [Compound 20] | B (B=41-70%) | 200 µM
21 | Cn1nc2c(cc1=O)CC(NC(=O)c1ccc(C(F)(F)F)cc1)CC2 (centres unmarked) [Compound 21] | A (A=71-100%) | 100 µM
22 | Cn1nc2c(cc1=O)CC(NC(=O)c1cccc3ccccc13)CC2 (centres unmarked) [Compound 22] | C (C=11-40%) | 200 µM
23 | CCCC(=O)NC1CCc2nn(C)c(=O)cc2C1 (centres unmarked) [Compound 23] | C (C=11-40%) | 100 µM
24 | Cn1nc2c(cc1=O)CC(NC(=O)C(C)(C)C)CC2 (centres unmarked) [Compound 24] | C (C=11-40%) | 100 µM
25 | Cn1nc2c(cc1=O)CC(NC(=O)C1CC1)CC2 (centres unmarked) [Compound 25] | C (C=11-40%) | 200 µM

Row | Compound | DQ2 IL2 Maximal % Inhibition | concentration at which the compound exhibited maximum % inhibition (DQ2 IL2)
26 | O=C(NC1CCc2n[nH]c(=O)cc2C1)c1ccc(F)cc1 (centres unmarked) [Compound 28] | C (C=11-40%) | 200 µM
27 | O=C(NC1CCc2n[nH]c(=O)cc2C1)c1ccc(Cl)cc1 (centres unmarked) [Compound 29] | B (B=41-70%) | 200 µM
28 | O=C(NC1CCc2n[nH]c(=O)cc2C1)c1ccc(Br)cc1 (centres unmarked) [Compound 30] | C (C=11-40%) | 200 µM
29 | O=C(NC1CCc2n[nH]c(=O)cc2C1)c1ccc(I)cc1 (centres unmarked) [Compound 31] | C (C=11-40%) | 200 µM
30 | Cn1nc2c(cc1=O)CC(NC(=O)c1ccc(F)cc1)CC2 (centres unmarked) [Compound 32] | C (C=11-40%) | 200 µM
31 | Cn1nc2c(cc1=O)CC(NC(=O)c1ccc(Cl)cc1)CC2 (centres unmarked) [Compound 33] | B (B=41-70%) | 200 µM
32 | Cn1nc2c(cc1=O)CC(NC(=O)c1ccc(Br)cc1)CC2 (centres unmarked) [Compound 34] | A (A=71-100%) | 200 µM
33 | Cn1nc2c(cc1=O)CC(NC(=O)c1ccc(I)cc1)CC2 (centres unmarked) [Compound 35] | B (B=41-70%) | 200 µM
34 | CCc1ccc(C(=O)NC2CCc3nn(CC)c(=O)cc3C2)cc1 (centres unmarked) [Compound 36] | B (B=41-70%) | 200 µM
35 | CCCn1nc2c(cc1=O)CC(NC(=O)c1ccc(CC)cc1)CC2 (centres unmarked) [Compound 37] | B (B=41-70%) | 200 µM
36 | CCc1ccc(C(=O)NC2CCc3nn(CC(N)=O)c(=O)cc3C2)cc1 (centres unmarked) [Compound 38] | A (A=71-100%) | 200 µM
37 | CCn1nc2c(cc1=O)CC(NC(=O)c1ccc(C(C)C)cc1)CC2 (centres unmarked) [Compound 40] | B (B=41-70%) | 200 µM
38 | CCCn1nc2c(cc1=O)CC(NC(=O)c1ccc(C(C)C)cc1)CC2 (centres unmarked) [Compound 41] | A (A=71-100%) | 200 µM
39 | CNC(=O)Cn1nc2c(cc1=O)CC(NC(=O)c1ccc(C(C)C)cc1)CC2 (centres unmarked) [Compound 42] | A (A=71-100%) | 200 µM
40 | CC(C)c1ccc(C(=O)NC2CCc3nn(CC(=O)O)c(=O)cc3C2)cc1 (centres unmarked) [Compound 43] | A (A=71-100%) | 200 µM
41 | CC(C)c1ccc(C(=O)NC2CCc3nn(C(C)C)c(=O)cc3C2)cc1 (centres unmarked) [Compound 44] | A (A=71-100%) | 200 µM
42 | CC(C)c1ccc(C(=O)NC2CCc3nn(CC4CC4)c(=O)cc3C2)cc1 (centres unmarked) [Compound 45] | A (A=71-100%) | 200 µM
43 | CCCCn1nc2c(cc1=O)CC(NC(=O)c1ccc(C(C)C)cc1)CC2 (centres unmarked) [Compound 46] | B (B=41-70%) | 200 µM
44 | CC(C)c1ccc(C(=O)NC2CCc3nn(CC4CCC4)c(=O)cc3C2)cc1 (centres unmarked) [Compound 48] | A (A=71-100%) | 100 µM
45 | CC(C)c1ccc(C(=O)NC2CCc3nn(CC4CCCCC4)c(=O)cc3C2)cc1 (centres unmarked) [Compound 49] | A (A=71-100%) | 200 µM
46 | CC(C)c1ccc(C(=O)NC2CCc3nn(Cc4ccccc4)c(=O)cc3C2)cc1 (centres unmarked) [Compound 50] | A (A=71-100%) | 200 µM
47 | COCCn1nc2c(cc1=O)CC(NC(=O)c1ccc(C(C)C)cc1)CC2 (centres unmarked) [Compound 51] | B (B=41-70%) | 200 µM
48 | CC(C)c1ccc(C(=O)NC2CCc3nn(C4CC4)c(=O)cc3C2)cc1 (centres unmarked) [Compound 53] | A (A=71-100%) | 200 µM
49 | CC(C)c1ccc(C(=O)NC2CCc3nn(C4CCCCC4)c(=O)cc3C2)cc1 (centres unmarked) [Compound 54] | A (A=71-100%) | 200 µM
